Numbered stars: 1 amine (or outer) side, 2 acyl side, 3 side chain; on linkers, the order of the positions; unused ones are H or OH. Square brackets hold non-standard residues; d marks the D form. Peptide text beside a SMILES is read from it. * marks the point of attachment. ξ: configuration not given here. X1 = C=Cc1c(C)c2cc3nc(c(CC(=O)O)c4nc(cc5[nH]c(cc1[nH]2)c(C)c5CC)C(C)=C4C(=O)O)C(CCC(=O)*)C3C; Dolaproine = CO[C@@H]([C@@H]1CCCN1)[C@@H](C)C(=O)O; ξDil = CC[C@H](C)C([C@@H](CC(=O)[*:2])OC)N(C)[*:1]; Dil = CC[C@H](C)[C@H](NC)[C@@H](CC(=O)O)OC; PABC = O=C(OCc1ccc(N[*:1])cc1)[*:2]; X2 = C[C@@H](N*)[C@@H](O)c1ccccc1; NMeV = CN[C@H](C(=O)O)C(C)C
Tests used:
[1] = Solubility in water, PBS and physiological saline; format: physicochemical; settings: for solubility in water: dissolved in water alone
[2] = self-assembled nanoparticle, DPBS 0.1 mg/mL
Protocol: Molecular structure was investigated with ChemBioDraw Ultra 12.0 (Cambridge Soft Corporation), PyMOL 1.7.0.1 (DeLano Scientific) or Discovery Studio 4.0. […] Hydrodynamic size and distribution were measured by dynamic light scattering (SZ-100, Horiba, Ltd., Japan) using a 532 nm DPSS laser.

[3] = self-assembled nanoparticle, physiological saline
Protocol: Morphology was observed by transmission electron microscopy (Talos F200X, FEI Company, USA). All the samples were treated with a 1% uranyl acetate solution to obtain negatively stained microscopic images.

[4] = pyrene method
Excerpt: Next, emission spectra were obtained at 372 nm and 383 nm using a spectrophotometer (F-7000, Hitachi High-Technologies Corporation, Japan) with an excitation wavelength of 340 nm. […] Fluorescence images were obtained at excitation (660 nm) and emission (710 nm) wavelengths.

caspase-3 [5] = target: caspase-3 (Homo sapiens, UniProt P42574)
Protocol: Finally, the mixture solution was analyzed by RP-HPLC (Agilent 1200 series, Agilent Technology, USA) equipped with a UV detector.

SCC7 cells [6] = settings: 50 μg/mL
Protocol: Experiments were conducted using SCC7 cells as follows. Specifically, the cells were cultured in a medium containing 10% fetal bovine serum (FBS) and 1% antibiotic using a 5% CO2 incubator at 37 C. […] After the incubation was completed, the cells were washed and fixed with a 2% paraformaldehyde solution. Then, the cells were stained with 4,6-diamidino-2-phenylindole (DAPI, Invitrogen, USA).

SCC7 cells [7] = assay: Cytotoxicity in vitro (CCK-8), with or without caspase-3; format: cell-based; settings: for effect on tumor cells at 10 nM without caspase-3: not activated by caspase-3 / alone
Protocol: The cytotoxicity of a drug was evaluated by a colorimetric assay using the cell counting kit-8 (CCK-8; Dojindo Molecular Technologies, Inc., USA). […] After removing the culture medium, the plate was washed twice with PBS.

SCC7 cells [8] = settings: SCC7 cells incubated with CDM, laser irradiation
Protocol: The apoptosis of the fixed cells was measured using an annexin V-FITC apoptosis detection kit (Sigma-Aldrich Co., USA). […] Then, the light-irradiated cells were treated with trypsin and stained for 30 minutes with FITC-annexin V and propidium iodide (PI) according to the manufacturer's instructions. The fluorescence images of the stained cells were obtained using a confocal laser scanning microscope (Leica TCS SP8; Leica Microsystems, Germany).

SCC7 cells [9] = assay: Cytotoxicity upon exposure to light (CCK-8)
Protocol: Specifically, 1×10^4 cells were seeded onto each well of a 96-well plate and cultured for 24 hours. Then, the cells were incubated with a drug at 500 nM for 6 hours after washing twice with PBS. After removing the culture medium, the cells were irradiated with light at 2.4 J/cm^2. The cells were then incubated for 30 minutes in a medium containing a 10% CCK-8 solution and absorbance was measured at 450 nm using a microplate reader.
(§1) The black circles indicate the sites irradiated with the laser.

SCC7 cells [10] = assay: Trypan blue staining after laser irradiation of a marked area; format: cell-based; settings: 500 nM, 20 mW/cm^2 for 5 minutes
Protocol: […], SCC7 cells were cultured until 80% confluence on a 60 mm cell culture dish. […] After the incubation was completed, the culture medium was replaced. A laser was irradiated at 20 mW/cm^2 for 5 minutes only onto an area marked with a small circle on the culture dish. Then, the cells were treated with trypan blue for 1 minute.
as §1

SCC7 tumor [11] = assay: Biodistribution in vivo by NIR fluorescence imaging in tumor animal model; design: species or system mouse
Protocol: Near-infrared (NIR) fluorescence imaging was conducted using a real-time optical imaging system in order to evaluate biodistribution in vivo. […]
For the in-vivo experiment, a tumor animal model was prepared by injecting 1×10^6 SCC7 cells into the left flank of a nude mouse.

SCC7 tumor [12] = assay: Antitumor effect in tumor animal model (C3H); settings: for tumor growth with laser: drug + 671 nm laser 25 mW/cm^2, Ce6 1 mg/kg, CDM 0.25 mg/kg based on MMAE; for damage to other organs (biopsy) / tumor cell killing in H&E biopsy: drug + laser
Protocol: For evaluation of therapeutic effect in vivo, tumor volume was measured for a tumor animal model for 14 days. When the tumor tissue grew to a size of about 80 mm^3, the tumor animal model was evaluated by dividing into 6 groups as follows.
Then, the tumor size was measured every other day.
For histological analysis, tumor tissues and organ tissues were taken from the in-vivo animal model after conducting antitumor growth analysis. The extracted tissues were washed with PBS and fixed with a 4% paraformaldehyde solution. Then, the tissues were stained with H&E (hematoxylin and eosin) and the stained tissues were embedded in paraffin and placed on glass slides after cutting into 4 μm thick slices. After removing paraffin, the tissues were stained with H&E and observed under an optical microscope (BX 51; Olympus, USA). […] The tissues were cut into 10 μm thick slices, freeze-dried and then observed under a confocal laser scanning microscope.
A He—Ne laser (671 nm) was used and the laser was irradiated at 25 mW/cm^2 three times for 10 minutes after the injection of the drug (n=6).

[13] = Toxicity in vivo in tumor animal model (C3H); design: species or system mouse; number of neutrophils: unit not given here; settings: for change in number of total white blood cells (WBCs): 0.5 mg/kg (CDM based on MMAE concentration); for change in body weight: 50, 200, 500 μg/kg (CDM based on MMAE concentration); for survival rate: CDM 0.25 mg/kg based on MMAE, Ce6 1 mg/kg group
Protocol: The body weight change of the tumor animal model was measured every day after treatment with the drug. […] All the blood samples were stored at 4° C. and analyzed within a day in SCL (Seoul Clinical Laboratories, Korea).
First, a tumor animal model was prepared by transplanting SCC7 tumor cells into a C3H mouse. Details are described above in Materials and methods.
6 groups were prepared as follows by injecting drugs into the tail vein of the tumor animal model. […] The total treatment period was 14 days.

[14] = physiological saline
caspase-3 [15] = settings: 500 nM, CDM + laser
Protocol: Caspase-3 colorimetric assay and western blot were conducted to quantify enzyme expression. First, SCC7 cells were cultured on a 100 mm^2 cell culture dish until 70% confluence and further cultured for 6 hours after adding a drug (500 nM). After replacing the medium, light was irradiated with 20 mW/cm^2 for 5 minutes. After culturing further for 3 hours, the cells were recovered for analysis of caspase-3. For immunoblotting assay, the cells were treated with anti-cleaved caspase-3 antibody (1:650) and anti-PARP antibody (1:1000) purchased from Cell Signaling Technology (Danvers, Mass.) as primary antibodies and then treated with HRP-conjugated anti-rabbit IgG and anti-mouse IgG (1:1000; R&D Systems) as secondary antibodies. The blotted membrane was analyzed with a chemiluminescence imager (LAS-3000; Fuji Photo Film, Japan). Colorimetric assay of caspase-3 was conducted using a microplate reader (VERSAmaxTM, Molecular Devices Corp., USA) and a caspase-3 assay kit (Abcam, Cambridge, MA) according to the manufacturer's instructions.

[16] = 1 mg/kg, tail vein
Protocol: For comparative analysis of pharmacokinetic characteristics in vivo, a tumor animal model was prepared in the same manner as in 9) using C57/BL6 mice instead of BALB/c nude mice.
After the injection, 20 μL of blood was taken from the tail vein of the tumor animal model (C57/BL6) over 12 hours at predetermined time intervals. The blood was immediately diluted to 5-fold with a 0.5 mg/kg low-molecular-weight heparin solution (DMSO:DIW cosolvent). Then, after transferring to a 96-well plate, the fluorescence intensity of the drug in the blood was measured by near-infrared (NIR) fluorescence quantification using a real-time optical imaging system equipped with a 660 nm excitation filter and a 710 nm emission filter. A calibration curve was constructed to analyze the concentration of the drug from the detected fluorescence intensity. The calibration curve was constructed by taking blood from an untreated tumor animal model and adjusting the concentration of the drug in the blood to 10^−8-10^−4.

SCC7 tumor [17] = test system: SCC7 tumor
Protocol: In order to conduct an in-vivo animal experiment, 5-week-oil BALB/c nude mouse mice were used as an allograft tumor animal model (BALB/c). The tumor animal model (BALB/c) was prepared by preparing a cell suspension containing 1×10^6 SCC7 cells and 80 μL of a medium and injecting it into the thighbone at the flank of the BALB/c nude mouse where the effect of respiratory movement is little. Then, the mice were bred for about 8 days until the tumor grew to a size of about 80 mm^3.
The tumor animal model prepared by administering various drugs as described in 9) was subjected to photodynamic therapy and the expression level of caspase-3 in vivo was monitored. For this, NIR fluorescence images were obtained using a probe which is activated by specifically reacting with caspase-3 (Cas3p; Cy5-GDEVD-BHQ3).
After 3 hours, Cas3p was injected and its biodistribution was measured using an excitation filter (640 nm) and an emission filter (710 nm).
First, in order to clarify the stimulation-specific therapeutic effect for a tumor animal model, the same tumor tissue was transplanted into different parts (left and right sides) of the same animal model and the two tumor tissues were compared.
A tumor animal model (Balb/c nu/nu) was prepared as described above in Materials and methods 9).

caspase-3 (Homo sapiens, UniProt P42574), sequence (P42574 29-175 limits assumed, species assumed): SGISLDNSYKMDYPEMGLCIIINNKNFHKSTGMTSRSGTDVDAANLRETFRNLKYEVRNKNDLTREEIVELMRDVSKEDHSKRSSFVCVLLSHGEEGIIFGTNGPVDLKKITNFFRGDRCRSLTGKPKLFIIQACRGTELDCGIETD
caspase-3 (Homo sapiens, UniProt P42574), sequence (P42574 176-277 limits assumed, species assumed): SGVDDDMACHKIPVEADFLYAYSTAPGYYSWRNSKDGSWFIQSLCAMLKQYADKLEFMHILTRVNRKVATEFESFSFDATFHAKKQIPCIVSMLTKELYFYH

Molecule: C=Cc1c(C)c2cc3nc(c(CC(=O)O)c4nc(cc5[nH]c(cc1[nH]2)c(C)c5CC)C(C)=C4C(=O)O)C(CCC(=O)NCCCC[C@H](NC(C)=O)C(=O)NCC(=O)N[C@@H](CC(=O)O)C(=O)N[C@@H](CCC(=O)O)C(=O)N[C@H](C(=O)N[C@@H](CC(=O)O)C(=O)Nc1ccc(COC(=O)N(C)[C@H](C(=O)N[C@H](C(=O)N(C)C([C@@H](C)CC)[C@@H](CC(=O)N2CCC[C@H]2[C@H](OC)[C@@H](C)C(=O)N[C@H](C)[C@@H](O)c2ccccc2)OC)C(C)C)C(C)C)cc1)C(C)C)C3C (stereo partly shown) [CDM, Ce6-(Ac)KGDEVD-PABC-MMAE] (Ac-K(X1)GDEVD[PABC][NMeV]V[ξDil][Dolaproine]-X2)
- solubility ([1]; water, PBS and physiological saline): dissolves well in all of water, PBS and physiological saline
- average diameter (hydrodynamic, DLS) [2]: 90.8±18.9 nm
- average diameter (TEM images) [3]: about 52.6±20.0 nm
- critical micelle concentration (CMC) [4]: about 1.382 μM
- time to effective activation by caspase-3 (caspase-3 [5]; 10 μM CDM, 500 ng/mL caspase-3, 37° C.): ≤ 2 h
- activation by caspase-3 in presence of caspase-3 inhibitor (Z-DEVD-FMK) (caspase-3 [5]; incubation for 2 hours): not completely activated
- time to accumulation in the cells in an enough amount (SCC7 cells [6]): ≤ 3 h
- tumor cell growth (cell viability, CCK) (SCC7 cells [7]; 10 nM in combination with caspase-3): 50.1%
- effect on tumor cells at 10 nM without caspase-3 (SCC7 cells [7]): little effect
- cell survival rate (SCC7 cells [7]; 50 nM in the presence of caspase-3): 42.5%
- cell survival rate (SCC7 cells [7]; 200 nM in the presence of caspase-3): 32.5%
- cell survival rate (SCC7 cells [7]; 600 nM in the presence of caspase-3): 25.5%
- apoptosis induction on light irradiation (SCC7 cells [8]): can induce apoptosis even with a small quantity of light
- cell viability (SCC7 cells [9]; 500 nM, light irradiated from outside (laser (+))): 12.8±9.2%
- cytotoxic effect compared to when the drugs are used alone (SCC7 cells [9]; after external stimulation (light irradiation or caspase-3)): ≥ 2 time
- cells killed after laser irradiation of a marked area (SCC7 cells [10]): nearby cells were also killed effectively
- fluorescence intensity in organs and tumor 24 hours after injection (SCC7 tumor [11]; liver, lung, spleen, kidney, heart and tumor tissues): high
- fluorescence intensity in the tumor tissue relative to Ce6-injected model (SCC7 tumor [11]; mouse, in vivo): 12.8-4.2
- time of highest fluorescence intensity in the tumor (SCC7 tumor [11]; tail vein injection): 6 to 12 h
- tumor size with time, no laser (SCC7 tumor [12]; CDM group, laser not irradiated): no change in tumor size
- tumor weight decrease compared to the CDM group and the laser group (SCC7 tumor [12]; CDM+laser group): 99.6%
- tumor growth with laser (SCC7 tumor [12]): no tumor growth
- damage to other organs (biopsy) (SCC7 tumor [12]): no damage to other organs
- tumor cell killing in H&E biopsy (SCC7 tumor [12]): killed extensively
- change in number of total white blood cells (WBCs) [13]: no change
- number of neutrophils ([13]; 0.5 mg/kg based on MMAE concentration): 1.6±1.0000
- change in body weight [13]: 4.8±0.2%
- survival rate [13]: 100%
- average diameter (SEM) [14]: 50-200 nm
- intracellular caspase-3 level (western blot) (caspase-3 [15]): increased the intracellular concentration of caspase-3
- blood level at first [16]: higher than that of Ce6
- growth of left-side vs right-side (laser) tumor (SCC7 tumor [17]; 0.5 mg/kg, 15 days): distinct difference in the growth of the left-side and right-side tumors
- caspase-3 probe (Cy5-GDEVD-BHQ3) fluorescence in tumors (SCC7 tumor [17]; CDM i.v., laser on right-side tumor only): observed only in the right-side tumor

Molecule: CC[C@H](C)[C@@H]([C@@H](CC(=O)N1CCC[C@H]1[C@H](OC)[C@@H](C)C(=O)N[C@H](C)[C@@H](O)c1ccccc1)OC)N(C)C(=O)[C@@H](NC(=O)[C@@H](NC)C(C)C)C(C)C [MMAE, monomethyl auristatin E] (H-[NMeV]V[Dil][Dolaproine]-X2)
- solubility in water [1]: water insolubility
- cell viability (SCC7 cells [9]; treated with MMAE only): 25.8±10.1%
- outcome of group during the antitumor experiment (SCC7 tumor [12]; MMAE 0.25 mg/kg only): died during the experiment because of too strong toxicity
- increase in plasma ALT ([13]; 0.5 mg/kg): 1.5 times
- increase in plasma AST ([13]; 0.5 mg/kg): 2.7 times
- neutrophils, times less as compared to the saline group ([13]; 0.5 mg/kg): 4.9 times
- percentage of the neutrophils to the total white blood cells ([13]; 0.5 mg/kg): 2.5±1.4%
- change in number of total white blood cells (WBCs) [13]: 35.7±13.8%
- change in body weight [13]: 31.6±2.2%
- day on which all were killed ([13]; MMAE 0.25 mg/kg): 4 days
- day on which group began to die ([13]; MMAE 0.25 mg/kg): 3 days
- size of lymphocytes (lymphoid tissue; white pulp) in spleen ([13]; MMAE group): significantly decreased
- spleen weight decrease ([13]; MMAE group): 75±11.8%
- body weight decrease ([13]; MMAE group, 0.25 mg/kg): 31.9±1.6%

Molecule: Chlorin e6 [Ce6, reference compound]
- solubility in water [1]: water insolubility
- effect on tumor cells at 10 nM without caspase-3 (SCC7 cells [7]): no effect
- cells killed after laser irradiation of a marked area (SCC7 cells [10]): only the cells treated with a laser were killed
- fluorescence in the tumor tissue (SCC7 tumor [11]; tail vein injection): hardly detected
- tumor growth with laser (SCC7 tumor [12]): tumor growth-inhibiting effect
- damage to other organs (biopsy) (SCC7 tumor [12]): no damage to other organs
- tumor cell killing in H&E biopsy (SCC7 tumor [12]): very insignificant
- survival rate [13]: 100%
